Measurements from US11147272B2, “Pyridone compounds and agricultural and horticultural fungicides comprising the same as active ingredients” (MITSUI CHEMICALS AGRO, INC., priority 2017, dated 2021).

Legend:
Puccinia recondita = test: Test Example E: Brown rust on wheat; assay type: in vivo; conditions: Brown rust on wheat; class of control value
Magnaporthe grisea = test: whole plant or invertebrate; assay type: in vivo; conditions: Blast on rice; class of control value
[1] = tested on: Colletotrichum orbiculare; test: Test Example H: Anthracnose on cucumber; conditions: Anthracnose on cucumber (Sagami Hanjiro); 250 ppm spray, 2.5 ml/pot; assessed 6 to 10 days after inoculation
Alternaia brassicicola = test: Test Example C: Alternaria sooty spot on cabbage; assay type: in vivo; conditions: Alternaria sooty spot on cabbage; class of control value
Source text: Seeds of a test plant (cabbage variety: Shikidori) were planted and cultivated until the cotyledons extended.
<Control Value> Control value=100{1−(n/3)}

Phytophthora infestans = test: whole plant or invertebrate; assay type: in vivo; conditions: Late blight on tomato; class of control value
[2] = tested on: Blumeria graminis f. sp. hordei; test: Test Example D: Powdery mildew on barley; conditions: Powdery mildew on barley; class of control value
Botrytis cinerea = test: Test Example B: Gray mold on tomato; conditions: Gray mold on tomato; class of control value
Plasmopara viticola = test: Test Example G: Downy mildew on vine; conditions: Downy mildew on vine (Neomuscat); 250 ppm spray, 2.5 ml/pot; assessed 7 to 10 days after inoculation
Procedure: Seeds of a test plant (grape variety: Neomuscat) were planted and cultivated until three to four first leaves appeared. In the test, the inventive compounds were dissolved into dimethyl sulfoxide-methanol mixture solution (volume ratio: 9/1), and the resultant solutions were diluted with well water to a concentration of 250 ppm to obtain the drug solutions. The drug solutions were sprayed to the test plant (2.5 ml/pot). After the drug solutions dried, a zoosporangia suspension (1-2×10^4 zoosporangia/ml) of Plasmopara viticola was inoculated to the plant by spraying. After the inoculation, the plant was kept in a mist chamber at room temperature of 20° C. for about 24 hours to promote the onset of disease. The degrees of disease development were investigated 7 to 10 days after the inoculation, and the effectiveness of the drug solutions was evaluated.
In Test Examples described above, the degrees of disease development were evaluated in increments of 0.05 from 0 (as no incidence of disease) to 3 (as the degree of disease development in an untreated plant group). Further, control values were calculated using the following equation based on the degree of disease development.
n=Degree of disease development in each treated group

## CCn1c(-c2ccc(F)cc2F)c(CC(C)C)cc(Cl)c1=O [compound 119]
Puccinia recondita
  Test E control value class: H (more than 50% control value)
Magnaporthe grisea
  Test A control value class: H (more than 50% control value)
[1]
  Test H control value class: H (more than 50% control value)
Alternaia brassicicola
  Test C control value class: H (more than 50% control value)
Phytophthora infestans
  Test F control value class: L (50% or less control value)
[2]
  Test D control value class: H (more than 50% control value)
Botrytis cinerea
  Test B control value class: H (more than 50% control value)
Plasmopara viticola
  Test G control value class: H (more than 50% control value)

## CCn1c(-c2ccc(F)cc2F)c(CC(C)C)cc(Br)c1=O [compound 120]
Puccinia recondita
  Test E control value class: H (more than 50% control value)
Magnaporthe grisea
  Test A control value class: H (more than 50% control value)
[1]
  Test H control value class: H (more than 50% control value)
Alternaia brassicicola
  Test C control value class: H (more than 50% control value)
Phytophthora infestans
  Test F control value class: L (50% or less control value)
[2]
  Test D control value class: H (more than 50% control value)
Botrytis cinerea
  Test B control value class: H (more than 50% control value)
Plasmopara viticola
  Test G control value class: L (50% or less control value)

## CCn1c(-c2ccc(OCCOC)cc2F)c(CC(C)C)cc(Cl)c1=O [compound 121]
Puccinia recondita
  Test E control value class: H (more than 50% control value)
Magnaporthe grisea
  Test A control value class: H (more than 50% control value)
[1]
  Test H control value class: H (more than 50% control value)
Alternaia brassicicola
  Test C control value class: H (more than 50% control value)
Phytophthora infestans
  Test F control value class: L (50% or less control value)
[2]
  Test D control value class: H (more than 50% control value)
Botrytis cinerea
  Test B control value class: H (more than 50% control value)
Plasmopara viticola
  Test G control value class: L (50% or less control value)

## CCn1c(-c2ccc(OCOC)cc2F)c(CC(C)C)cc(Cl)c1=O [compound 122]
Puccinia recondita
  Test E control value class: H (more than 50% control value)
Magnaporthe grisea
  Test A control value class: H (more than 50% control value)
[1]
  Test H control value class: H (more than 50% control value)
Alternaia brassicicola
  Test C control value class: H (more than 50% control value)
Phytophthora infestans
  Test F control value class: L (50% or less control value)
[2]
  Test D control value class: H (more than 50% control value)
Botrytis cinerea
  Test B control value class: H (more than 50% control value)
Plasmopara viticola
  Test G control value class: H (more than 50% control value)

## CCOc1ccc(-c2c(CC(C)C)cc(Cl)c(=O)n2CC)c(F)c1 [compound 123]
Puccinia recondita
  Test E control value class: H (more than 50% control value)
Magnaporthe grisea
  Test A control value class: H (more than 50% control value)
[1]
  Test H control value class: H (more than 50% control value)
Alternaia brassicicola
  Test C control value class: H (more than 50% control value)
Phytophthora infestans
  Test F control value class: L (50% or less control value)
[2]
  Test D control value class: H (more than 50% control value)
Botrytis cinerea
  Test B control value class: H (more than 50% control value)
Plasmopara viticola
  Test G control value class: H (more than 50% control value)

## C=CCOc1ccc(-c2c(CC(C)C)cc(Cl)c(=O)n2CC)c(F)c1 [compound 124]
Puccinia recondita
  Test E control value class: H (more than 50% control value)
Magnaporthe grisea
  Test A control value class: H (more than 50% control value)
[1]
  Test H control value class: H (more than 50% control value)
Alternaia brassicicola
  Test C control value class: H (more than 50% control value)
Phytophthora infestans
  Test F control value class: L (50% or less control value)
[2]
  Test D control value class: H (more than 50% control value)
Botrytis cinerea
  Test B control value class: H (more than 50% control value)
Plasmopara viticola
  Test G control value class: L (50% or less control value)

## C#CCOc1ccc(-c2c(CC(C)C)cc(Cl)c(=O)n2CC)c(F)c1 [compound 125]
Puccinia recondita
  Test E control value class: H (more than 50% control value)
Magnaporthe grisea
  Test A control value class: H (more than 50% control value)
[1]
  Test H control value class: H (more than 50% control value)
Alternaia brassicicola
  Test C control value class: H (more than 50% control value)
Phytophthora infestans
  Test F control value class: L (50% or less control value)
[2]
  Test D control value class: H (more than 50% control value)
Botrytis cinerea
  Test B control value class: H (more than 50% control value)
Plasmopara viticola
  Test G control value class: H (more than 50% control value)

## CCCOc1ccc(-c2c(CC(C)C)cc(Cl)c(=O)n2CC)c(F)c1 [compound 126]
Puccinia recondita
  Test E control value class: H (more than 50% control value)
Magnaporthe grisea
  Test A control value class: L (50% or less control value)
[1]
  Test H control value class: H (more than 50% control value)
Alternaia brassicicola
  Test C control value class: H (more than 50% control value)
Phytophthora infestans
  Test F control value class: L (50% or less control value)
[2]
  Test D control value class: H (more than 50% control value)
Botrytis cinerea
  Test B control value class: H (more than 50% control value)
Plasmopara viticola
  Test G control value class: H (more than 50% control value)

## CCn1c(-c2ccc(OCC#N)cc2F)c(CC(C)C)cc(Cl)c1=O [compound 127]
Puccinia recondita
  Test E control value class: H (more than 50% control value)
Magnaporthe grisea
  Test A control value class: L (50% or less control value)
[1]
  Test H control value class: H (more than 50% control value)
Alternaia brassicicola
  Test C control value class: H (more than 50% control value)
Phytophthora infestans
  Test F control value class: L (50% or less control value)
[2]
  Test D control value class: H (more than 50% control value)
Botrytis cinerea
  Test B control value class: H (more than 50% control value)
Plasmopara viticola
  Test G control value class: H (more than 50% control value)

## CCn1c(-c2ccc(OCSC)cc2F)c(CC(C)C)cc(Cl)c1=O [compound 128]
Puccinia recondita
  Test E control value class: H (more than 50% control value)
Magnaporthe grisea
  Test A control value class: H (more than 50% control value)
[1]
  Test H control value class: H (more than 50% control value)
Alternaia brassicicola
  Test C control value class: H (more than 50% control value)
Phytophthora infestans
  Test F control value class: L (50% or less control value)
[2]
  Test D control value class: H (more than 50% control value)
Botrytis cinerea
  Test B control value class: H (more than 50% control value)
Plasmopara viticola
  Test G control value class: H (more than 50% control value)

## CCn1c(-c2ccc(OCC3CC3)cc2F)c(CC(C)C)cc(Cl)c1=O [compound 129]
Puccinia recondita
  Test E control value class: H (more than 50% control value)
Magnaporthe grisea
  Test A control value class: L (50% or less control value)
[1]
  Test H control value class: L (50% or less control value)
Alternaia brassicicola
  Test C control value class: H (more than 50% control value)
Phytophthora infestans
  Test F control value class: L (50% or less control value)
[2]
  Test D control value class: H (more than 50% control value)
Botrytis cinerea
  Test B control value class: H (more than 50% control value)
Plasmopara viticola
  Test G control value class: H (more than 50% control value)

## CCn1c(-c2c(F)cc(OC)cc2F)c(CN(OC)C(C)=O)cc(Cl)c1=O [compound 130]
Puccinia recondita
  Test E control value class: H (more than 50% control value)
Magnaporthe grisea
  Test A control value class: H (more than 50% control value)
[1]
  Test H control value class: H (more than 50% control value)
Alternaia brassicicola
  Test C control value class: H (more than 50% control value)
Phytophthora infestans
  Test F control value class: L (50% or less control value)
[2]
  Test D control value class: L (50% or less control value)
Botrytis cinerea
  Test B control value class: L (50% or less control value)
Plasmopara viticola
  Test G control value class: H (more than 50% control value)

## CCn1c(-c2c(F)cc(OC)cc2F)c(CN(OC)C(=O)OC)cc(Cl)c1=O [compound 131]
Puccinia recondita
  Test E control value class: H (more than 50% control value)
Magnaporthe grisea
  Test A control value class: H (more than 50% control value)
[1]
  Test H control value class: H (more than 50% control value)
Alternaia brassicicola
  Test C control value class: H (more than 50% control value)
Phytophthora infestans
  Test F control value class: L (50% or less control value)
[2]
  Test D control value class: H (more than 50% control value)
Botrytis cinerea
  Test B control value class: H (more than 50% control value)
Plasmopara viticola
  Test G control value class: H (more than 50% control value)

## CCn1c(-c2c(F)cc(F)cc2F)c(CN(OC)C(C)=O)cc(Cl)c1=O [compound 132]
Puccinia recondita
  Test E control value class: L (50% or less control value)
Magnaporthe grisea
  Test A control value class: H (more than 50% control value)
[1]
  Test H control value class: L (50% or less control value)
Alternaia brassicicola
  Test C control value class: H (more than 50% control value)
Phytophthora infestans
  Test F control value class: L (50% or less control value)
[2]
  Test D control value class: L (50% or less control value)
Botrytis cinerea
  Test B control value class: L (50% or less control value)
Plasmopara viticola
  Test G control value class: L (50% or less control value)

## CCn1c(-c2c(F)cc(F)cc2F)c(CN(OC)C(=O)OC)cc(Cl)c1=O [compound 133]
Puccinia recondita
  Test E control value class: H (more than 50% control value)
Magnaporthe grisea
  Test A control value class: H (more than 50% control value)
[1]
  Test H control value class: H (more than 50% control value)
Alternaia brassicicola
  Test C control value class: H (more than 50% control value)
Phytophthora infestans
  Test F control value class: L (50% or less control value)
[2]
  Test D control value class: H (more than 50% control value)
Botrytis cinerea
  Test B control value class: H (more than 50% control value)
Plasmopara viticola
  Test G control value class: H (more than 50% control value)

## CC(C)Cc1ccc(=O)n(C)c1-c1ccc(Cl)cc1Cl [compound 134]
Puccinia recondita
  Test E control value class: H (more than 50% control value)
Magnaporthe grisea
  Test A control value class: H (more than 50% control value)
[1]
  Test H control value class: L (50% or less control value)
Alternaia brassicicola
  Test C control value class: L (50% or less control value)
Phytophthora infestans
  Test F control value class: L (50% or less control value)
[2]
  Test D control value class: H (more than 50% control value)
Botrytis cinerea
  Test B control value class: H (more than 50% control value)
Plasmopara viticola
  Test G control value class: H (more than 50% control value)
